The record followed here is PubChem BioAssay AID179 (DTP/NCI, 2004).

Calls of active or inactive are those of the source.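 Rule for the calls: active = compounds giving half or more protection of infected cells from virus-caused growth loss, again on retest; inactive = the rest.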

The subject of this test is CEM cells HIV-1 protection, formazan growth assay. Description: NCI AIDS Antiviral Assay. The note with it: for IC50: measured here: growth of uninfected CEM cells. As for the experimental part: The ability of compounds to protect human CEM cells from HIV-1 infection is measured as a screen for new compounds capable of inhibiting the HIV virus. Five concentrations of drug were tested on uninfected and infected cells and cell growth was measured using a soluble formazan assay. […] Compounds that provided at least 50% protection were retested. Compounds that provided at least 50% protection on retest were listed as moderately active. Compounds that reproducibly provided 100% protection were listed as confirmed active. […] Note that the inability to provide protection could be due to toxicity.

For orientation: EC50 means the concentration giving half of the maximal effect. Usually IC50 stands for the concentration at which inhibition is half-maximal. Low readings indicate inhibition by little substance, high ones a need for much substance. For the molecule `Clc1ccc(OCCSCCCCCCCCCCSCCOc2ccc(Cl)cc2)cc1`, the EC50 is more than 7.24 µM and the IC50 was more than 7.24 µM.

For `N/N=c1\c2ccccc2c2cc3c(cc12)/c(=N/N)c1ccccc13`, the EC50 was more than 17 µM and the 50% inhibitory concentration (IC50) was more than 17 µM.

Take `Sc1cc2c(c3ccccc13)Nc1ccccc1S2`: the EC50 was more than 200 µM and the IC50 stood at 123 µM.

As to `CCCCCCCCCCCCCCCC(=O)OC(CC(=O)O)C[N+](C)(C)C` (centres undefined), the result was inactive.

For `CCSc1ccc([N+](=O)[O-])c2c(SCC)c3ccccc3nc12`, the result was inactive.

For `CCCCCC1=CC(=O)C=C(OC)C12C(=O)Oc1cc(O)c(C(=O)O)c(CCCCC)c12` (centres undefined), the EC50 was more than 562 µM and the IC50 came to 77.6 µM.

For `CCOC(=O)/C(=C\c1ccc([N+](=O)[O-])cc1)[Se]c1ccccc1`, the EC50 is more than 69.2 µM and the concentration for half-maximal inhibition (IC50) was 26.9 µM.

Consider `Nc1nc(Cl)cc(NCC2(CO)CC(O)C2)n1` (centres undefined), for which the EC50 is more than 200 µM and the IC50 is more than 200 µM.

On to `COc1cc2c(c3c1[C@@H](O)[C@H](C)[C@@H](C)O3)C=CC(C)(C)O2`, for which the EC50 was more than 200 µM and the IC50 turned out to be 79.4 µM.

Turning to `NNC(=O)N/N=C1/C(=O)N(c2ccc(Cl)c(Cl)c2)C(=O)C(=O)C1c1nc2ccccc2o1` (centres undefined), the result was inactive.

`CCOC(=O)Nc1nn(C)c(=NCc2ccccc2)s1`: the EC50 was more than 200 µM and the half-maximal inhibitory concentration (IC50) is more than 200 µM.

On to `CC(C)=CCCc1c(C)ccc2c1C(=O)C(=O)C(C(C)C)=C2`, for which the EC50 was more than 60.3 µM and the concentration for half-maximal inhibition (IC50) was determined as 4.47 µM.

On to `O=C1/C(=C\c2ccc(Cl)cc2)SC2SC=C(c3ccc([N+](=O)[O-])cc3)N12` (centres undefined), for which the EC50 was more than 200 µM and the IC50 is 26.3 µM.

Regarding `Nc1nc(NCCOCP(=O)(O)O)c([N+](=O)[O-])c(=O)[nH]1`, the EC50 worked out at 178 µM and the half-inhibitory concentration (IC50) was more than 200 µM.

In the case of `Cc1cc2c(cc1Cl)SC(C(=O)c1ccc(Cl)c(Cl)c1)=NS2(=O)=O`, the result was inactive.

Consider `CC(C)=C1CC(C)(C)N=C1CCN1CCOCC1`, for which the EC50 was more than 200 µM and the 50% inhibitory concentration (IC50) is 2.95 µM.

Take `C=C1C(=O)O[C@H]2C[C@@]3(COC(C)=O)C=COC=C(COC(=O)C(C)C)C3CC12` (some centres undefined): the EC50 was more than 200 µM and the half-maximal inhibitory concentration (IC50) stood at 30.9 µM.

Turning to `Cc1n[nH]c(=O)c2cc3oc4ccccc4c3n12`, the EC50 was more than 107 µM and the IC50 is 32.4 µM.

On to `CC(C(C(=O)O)S(=O)(=O)O)C(C(=O)O)S(=O)(=O)O` (centres undefined), for which the EC50 is more than 100 µM and the concentration for half-maximal inhibition (IC50) was determined as 20.4 µM.

In the case of `[O-]c1on[n+]2c1CSC2`, the EC50 was more than 1740 µM and the IC50 is more than 1740 µM.

As to `O=C1C(C(c2ccc([N+](=O)[O-])cc2)N2CCOCC2)=C(O)C(c2ccccc2)N1c1ccccc1` (centres undefined), the EC50 is more than 100 µM and the half-inhibitory concentration (IC50) came to 24.5 µM.

As for `CCOC(=O)c1ccc(CS(=O)c2ccc(OC)cc2)c([N+](=O)[O-])c1` (centres undefined), the EC50 is more than 100 µM and the IC50 was determined as 12.3 µM.

With `COc1ccc(N2C(=O)C3c4[nH]c5ccccc5c4C4CCC(C(C)C)CC4C3C2=O)cc1` (centres undefined), the EC50 is more than 100 µM and the IC50 is 93.3 µM.

With `CC(C)(C)C1CCC2c3c([nH]c4ccccc34)C3C(=O)N(c4cccc([N+](=O)[O-])c4)C(=O)C3C2C1` (centres undefined), the EC50 was more than 200 µM and the 50% inhibitory concentration (IC50) worked out at 4.79 µM.

In the case of `COC(=O)c1ccccc1/C=C1/Cc2cccc(C)c2C1=O`, the EC50 is more than 200 µM and the IC50 was more than 200 µM.

Take `Nc1nc(=S)ss1`: the EC50 is more than 200 µM and the IC50 was 155 µM.

As for `CCCCc1ccc(Nc2cc(=O)n(C)c(=O)[nH]2)cc1`, the EC50 was more than 200 µM and the IC50 is more than 200 µM.

For `COC(=N)C12C(N)=NC(OC)(OC)C1(C#N)C21C(=O)N(c2ccccc2)N=C1C` (centres undefined), the EC50 was more than 200 µM and the IC50 worked out at 97.7 µM.

As to `CC(=O)Oc1ccc2c(c1)oc1c3ccc(OC(C)=O)cc3n(C)c(=O)c21`, the EC50 is more than 200 µM and the IC50 came out at 107 µM.

With `Clc1ccc(CSc2nnc3c(n2)[nH]c2ccccc23)cc1`, the EC50 was more than 200 µM and the IC50 was 42.7 µM.

`O=C(Cc1ccccc1C(=O)O)c1ccccc1` registered an EC50 of more than 200 µM and an IC50 of more than 200 µM.

For `C=C1C(=O)OC2CC1(C)OCC2[C@H]1CCC2C3CC=C4CC=CC(=O)[C@]4(C)C3CC[C@@]21C` (some centres undefined), the EC50 was more than 155 µM and the IC50 is 3.31 µM.

In the case of `COc1ccc(N2CCOCC2)cc1`, the result was inactive.

Consider `CCN1C[C@]2(OC(=O)c3ccccc3NC(C)=O)CCC(OC)C34[C@@H]1[C@@](O)(C[C@@H]32)[C@@]1(O)C[C@H](OC)[C@@H]2C[C@@H]4[C@]1(O)C2OC` (some centres undefined), for which the outcome was inactive.

Regarding `CCOC(=O)CSc1[nH]c2nc(C)nc(Cl)c2c1C#N`, the EC50 is more than 200 µM and the IC50 was more than 100 µM.

For `O=C1C=CC2OC(c3ccccc3)[C@H](O)C2O1` (some centres undefined), the EC50 is more than 1070 µM and the IC50 is 6.92 µM.

Take `CN(C)CN1C(=O)S/C(=C2\C(=O)N(CN(C)C)c3ccccc32)C1=O`: the EC50 is more than 200 µM and the IC50 is 38 µM.

`CCCCCCCCCCCC(=O)c1c(O)c2ccccc2oc1=O`: the EC50 was more than 200 µM and the IC50 turned out to be 155 µM.

With `COc1ccc(NC(=O)/C(=N\NC(=O)C[n+]2ccccc2)c2c(O)c3ccc(O)cc3oc2=O)c([N+](=O)[O-])c1`, the EC50 was more than 437 µM and the IC50 is 72.4 µM.

In the case of `O=C1c2c(O)cc(O)cc2O[C@H](c2ccc(O)cc2)[C@H]1[C@@H]1C(=O)c2c(O)cc(O)cc2O[C@H]1c1ccc(O)cc1`, the EC50 was more than 200 µM and the IC50 turned out to be 8.51 µM.

For the molecule `Cc1cc(Cl)ccc1NC(=O)CCCC(=O)C(C(=O)c1ccccc1)c1ccccc1` (centres undefined), the result was inactive.

Regarding `Cn1c2c(c3ccccc31)CCN1C(=O)CN(C(=O)C3CCCCC3)CC21` (centres undefined), the EC50 was more than 200 µM and the IC50 came out at 66.1 µM.

Consider `CC1CCC2C(C)C3C(CC4C5CC=C6CC(O)CCC6(C)C5CCC43COC(=O)c3ccccc3)N2C1` (centres undefined), for which the EC50 was more than 69.2 µM and the concentration for half-maximal inhibition (IC50) was more than 69.2 µM.

For the molecule `CC(=O)CN=C(C)NNc1ccc([N+](=O)[O-])cc1[N+](=O)[O-]`, the EC50 is more than 200 µM and the IC50 came to 60.3 µM.

Consider `COCCOCOC(CCCCO)c1cc(C)c(O[Si](C)(C)C(C)(C)C)c(C)c1` (centres undefined), for which the EC50 was more than 50.1 µM and the IC50 is 4.9 µM.

With `C[C@]12CC[C@H](OC(=O)/C=C\c3cccc(N(CCCl)CCCl)c3)CC1CC[C@@H]1C2CC[C@]2(C)NC(=O)CCC12` (some centres undefined), the outcome was inactive.

As to `O=c1oc2ccccc2c(O)c1C(c1ccc2ccccc2c1)c1c(O)c2ccccc2oc1=O`, the EC50 was more than 200 µM and the IC50 amounted to 38.9 µM.

`CCN(CC)CCN(CC)C(=O)COc1cc2c(O)c3c(O)c(C)c4c(c13)C(=O)C(C)(O/C=C/C(OC)C(C)C(OC(C)=O)C(C)C(O)C(C)C(O)C(C)/C=C/C=C(\C)C(=O)N2)O4` (centres undefined): the EC50 is more than 200 µM and the IC50 was found to be 35.5 µM.

Turning to `N#CC(NNC(=O)Cc1ccccc1)c1cccc(O)c1` (centres undefined), the EC50 is more than 468 µM and the IC50 amounted to 158 µM.

For the molecule `CC(=O)NCCc1c(-c2[nH]c3ccccc3c2CCNC(C)=O)[nH]c2ccccc12`, the EC50 is 51.3 µM and the IC50 was 107 µM.

Take `CC1=C(O)C(=O)C2C(=O)C1C(C)C2c1ccccc1` (centres undefined): the EC50 was more than 195 µM and the concentration for half-maximal inhibition (IC50) was more than 195 µM.

As for `OCCN1CCN(CCCN2c3ccccc3Sc3ccc(C(F)(F)F)cc32)CC1`, the EC50 is more than 200 µM and the IC50 worked out at 10.2 µM.

For the molecule `O=C(Nc1c(Cl)cc([N+](=O)[O-])cc1Cl)C(=O)C(C(=O)c1ccncc1)C1OC(=O)c2ccccc21` (centres undefined), the outcome was inactive.

Regarding `CCc1cc(=O)oc2c3c(cc(OC(C)C)c12)O[C@H](C)[C@@H](C)C3=O`, the EC50 was more than 200 µM and the IC50 turned out to be 15.5 µM.

As for `CC1=NN(c2nc(N)nc(NS(=O)(=O)c3cc(C)c(Cl)cc3S)n2)C(C)(C)C1`, the EC50 is 105 µM and the 50% inhibitory concentration (IC50) worked out at 479 µM.

On to `C=CC(CCC(C)O)[Si](C)(C)C` (centres undefined), for which the EC50 is more than 977 µM and the IC50 was more than 977 µM.

In the case of `CC1CCC(C(C)C)C(OC2(c3ccccc3)OC(=O)c3ccccc32)C1` (centres undefined), the result was inactive.

`Cc1ccc(/C(O)=C/c2nc3ccc([N+](=O)[O-])cc3nc2/C=C(\O)c2ccc(C)cc2)cc1`: the EC50 was more than 100 µM and the half-inhibitory concentration (IC50) was 97.7 µM.

`Cc1nc(C)c(N2CCN([N+](=O)[O-])CC2)c(=O)[nH]1`: the EC50 is more than 200 µM and the IC50 was more than 200 µM.

As to `CC(=C/c1ccccc1)/C=C1/NC(=S)N(CN2CCCCCC2)C1=O`, the EC50 is more than 200 µM and the half-inhibitory concentration (IC50) stood at 110 µM.

In the case of `COC1=C(C)C(=O)c2nc(C)ccc2C1=O`, the result was inactive.

With `COC(=O)CCSC(=O)Nc1ccccc1Cl`, the outcome was inactive.

`C/C1=C2\CC(OC3OCC(O)C(O)C3O)C(C)C2C/C=C(/C=O)[C@H]2C[C@@]3(C)CCC(C(C)C)C3CC12` (some centres undefined): the EC50 was more than 93.3 µM and the half-inhibitory concentration (IC50) was more than 93.3 µM.

With `CCOC(=O)C1N(S(=O)(=O)c2ccc(C)cc2)CCC12c1ccccc1N(C(C)=O)C2C(/C=C/C(=O)OC)=C/C(=O)OC` (centres undefined), the result was inactive.

Regarding `COc1cc(C(O)C(=O)c2nc3ccc([N+](=O)[O-])cc3[nH]c2=O)ccc1O` (centres undefined), the EC50 was more than 251 µM and the IC50 is more than 251 µM.

As for `CCOC(=O)C(NC(=O)c1ccccc1)(Nc1ccc(S(=O)(=O)Nc2nc(C)cc(C)n2)cc1)C(F)(F)F` (centres undefined), the EC50 is more than 200 µM and the IC50 is more than 200 µM.

As for `C[n+]1c2ccccc2c(NC(CCCN=C(N)N)C(=O)O)c2ccccc21` (centres undefined), the outcome was inactive.

As to `CSC1=N/C(=C\c2ccco2)C(=O)N1CN1CCCCC1`, the EC50 is more than 200 µM and the 50% inhibitory concentration (IC50) was found to be 102 µM.

As for `ClB1NB(Cl)NB(Cl)N1`, the EC50 is more than 138 µM and the half-inhibitory concentration (IC50) is more than 138 µM.
